Assay results published in US20260022142A1, “MACROCYCLIC IMMUNOMODULATORS” (Bristol-Myers Squibb Company, priority 2022, published 2026).
Numbered stars: 1 amine (or outer) side, 2 acyl side, 3 side chain; on linkers, the order of the positions; unused ones are H or OH. Bridge positions count the residues as written; N and C are the ends. Square brackets hold non-standard residues; d marks the D form. Peptide text beside a SMILES is read from it. * marks the point of attachment. Bip = N[C@@H](Cc1ccc(-c2ccccc2)cc1)C(=O)O; NH(CH2)14COOH = O=C(O)CCCCCCCCCCCCCCN*; Phe(3-Me) = Cc1cccc(C[C@H](N)C(=O)O)c1; βAsp = O=C(O)[C@H](CC(=O)[*:2])N[*:1]; X6 = O=C(Cc1ccc(CN[*:1])cc1)[*:2]; hArg = N=C(N)NCCCC[C@H](N)C(=O)O; 4Pal = N[C@@H](Cc1ccncc1)C(=O)O; 3Thi = N[C@@H](Cc1ccsc1)C(=O)O; Cha = N[C@@H](CC1CCCCC1)C(=O)O; Cit = NC(=O)NCCC[C@H](N)C(=O)O; Carboxymethyl = O=C(O)C*; Orn = NCCC[C@H](N)C(=O)O; Pra = C#CC[C@H](N)C(=O)O; Aun = NCCCCCCCCCCC(=O)O; Dab = NCC[C@H](N)C(=O)O; Dap = NC[C@H](N)C(=O)O; AEEA = NCCOCCOCC(=O)O

These compounds were tested against T1, PD-1/PD-L1 interaction (PE-labeled human PD-L1-Ig binding to Jurkat cell line over-expressing human PD-1) (Homo sapiens, UniProt Q15116) (assay: Jurkat-PD-1 Cell Binding High-Content Screening Assay (CBA)). Details: Jurkat cell line over-expressing human PD-1; PE-labeled PD-L1-Ig 20 nM final; read-out: Jurkat hPD1-PDL1 IC50.
T1 construct: expressed in transfected cells; host or cells: Jurkat
T1 sequence (Q15116 25-288): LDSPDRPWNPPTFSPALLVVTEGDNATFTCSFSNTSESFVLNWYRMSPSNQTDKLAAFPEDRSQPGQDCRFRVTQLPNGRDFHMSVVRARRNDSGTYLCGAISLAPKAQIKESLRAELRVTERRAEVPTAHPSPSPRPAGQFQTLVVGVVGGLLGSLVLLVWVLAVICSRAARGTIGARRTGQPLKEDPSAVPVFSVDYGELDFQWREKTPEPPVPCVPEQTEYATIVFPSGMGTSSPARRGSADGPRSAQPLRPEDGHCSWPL
Assay type: cell-based
Outline: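 Human PD-L1-Ig carrying a covalent PE label on its Ig tag serves as the probe, applied at 20 nM final to compound-treated (2 h, 37° C) Jurkat-hPD-1 cells in medium with 10% fetal calf serum. After one hour, fixation and nuclear staining precede high-content image analysis.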

IC50 [nM]	SMILES
46	Cc1cccc(C[C@@H]2NC(=O)[C@H](CC(=O)O)NC(=O)[C@H](Cc3ccc(OCC(=O)O)cc3)NC(=O)[C@H](CN)NC(=O)CSC[C@@H](C(=O)N[C@@H](CCCCN)C(=O)NCc3ccc(CC(=O)NCCCCCCCCCCC(=O)O)cc3)NC(=O)[C@H](CN)NC(=O)[C@H](C(C)C)NC(=O)[C@H](CC3CCCCC3)NC(=O)[C@H](CCN)NC(=O)[C@@H](CC(C)C)NC(=O)[C@H](CCCN)NC(=O)[C@H](C(C)C)NC(=O)[C@H](Cc3ccc(-c4ccccc4)cc3)NC(=O)[C@H](C(C)C)NC2=O)c1 [Compound 2012] ({CH2CO}-[Dap]Y(Carboxymethyl)D[Phe(3-Me)]V[Bip]V[Orn][dL][Dab][Cha]V[Dap]CK[X6][Aun]-OH; thioether N-14)
15	Cc1cccc(C[C@@H]2NC(=O)[C@H](CC(=O)O)NC(=O)[C@H](Cc3ccc(OCC(=O)O)cc3)NC(=O)[C@H](CN)NC(=O)CSC[C@@H](C(=O)NCCOCCOCC(=O)NCCCCCCCCCCC(=O)O)NC(=O)[C@H](CCCN)NC(=O)[C@H](C(C)C)NC(=O)[C@H](CC3CCCCC3)NC(=O)[C@H](CCN)NC(=O)[C@@H](CC(C)C)NC(=O)[C@H](CCCN)NC(=O)[C@H](Cc3ccc(O)cc3)NC(=O)[C@H](Cc3ccc(-c4ccccc4)cc3)NC(=O)[C@H](Cc3ccc(O)cc3)NC2=O)c1 [Compound 2691] ({CH2CO}-[Dap]Y(Carboxymethyl)D[Phe(3-Me)]Y[Bip]Y[Orn][dL][Dab][Cha]V[Orn]C[AEEA][Aun]-OH; thioether N-14)
114	Cc1cccc(C[C@@H]2NC(=O)[C@H](CC(=O)O)NC(=O)[C@H](Cc3ccc(OCC(=O)O)cc3)NC(=O)[C@H](CN)NC(=O)CSC[C@@H](C(=O)N[C@H](CC(=O)NCCCCCCCCCCC(=O)O)C(N)=O)NC(=O)[C@H]([C@@H](C)O)NC(=O)[C@H](C(C)C)NC(=O)[C@H](CC3CCCCC3)NC(=O)[C@H](CCN)NC(=O)[C@@H](CC(C)C)NC(=O)[C@H](CCCN)NC(=O)[C@H](Cc3ccc(O)cc3)NC(=O)[C@H](Cc3ccc(-c4ccccc4)cc3)NC(=O)[C@H](Cc3ccc(O)cc3)NC2=O)c1 [Compound 2736] ({CH2CO}-[Dap]Y(Carboxymethyl)D[Phe(3-Me)]Y[Bip]Y[Orn][dL][Dab][Cha]VTC[dD](Aun)-NH2; thioether N-14)
6.8	Cc1cccc(C[C@@H]2NC(=O)[C@H](CC(=O)O)NC(=O)[C@H](Cc3ccc(OCC(=O)O)cc3)NC(=O)[C@H](CN)NC(=O)CSC[C@@H](C(=O)N[C@@H](CCCCN)C(=O)NCCOCCOCC(=O)NCCCCCCCCCCC(=O)O)NC(=O)[C@H](CCCN)NC(=O)[C@H](C(C)C)NC(=O)[C@H](CC3CCCCC3)NC(=O)[C@H](CCN)NC(=O)[C@@H](CC(C)C)NC(=O)[C@H](CCCN)NC(=O)[C@H](C(C)C)NC(=O)[C@H](Cc3ccc(-c4ccccc4)cc3)NC(=O)[C@H](C(C)C)NC2=O)c1 [Compound 2527] ({CH2CO}-[Dap]Y(Carboxymethyl)D[Phe(3-Me)]V[Bip]V[Orn][dL][Dab][Cha]V[Orn]CK[AEEA][Aun]-OH; thioether N-14)
552	CC(C)C[C@H]1NC(=O)[C@H](CCCN)NC(=O)[C@H](CCN)NC(=O)[C@H](Cc2ccc(-c3ccccc3)cc2)NC(=O)[C@H](C(C)C)NC(=O)[C@H](Cc2c[nH]c3ccccc23)NC(=O)[C@H](CC(=O)O)NC(=O)[C@H](Cc2ccc(OCC(=O)O)cc2)NC(=O)[C@H](CN)NC(=O)CSC[C@@H](C(=O)N[C@@H](CC(N)=O)C(=O)NCC(=O)NCCCCCCCCCCCCCCC(=O)O)NC(=O)[C@H](CO)NC(=O)[C@H](C(C)C)NC(=O)[C@H](CC2CCCCC2)NC(=O)[C@H](CCN)NC1=O [Compound 3008] ({CH2CO}-[Dap]Y(Carboxymethyl)DWV[Bip][Dab][Orn][dL][Dab][Cha]VSCNG-{NH(CH2)14COOH}; thioether N-14)
15.6	C#CC[C@H](NC(=O)COCCOCCNC(=O)[C@H](CCCN)NC(=O)[C@@H]1CSCC(=O)N[C@@H](Cc2ccncc2)C(=O)N[C@@H](Cc2ccc(OCC(=O)O)cc2)C(=O)N[C@@H](CC(=O)O)C(=O)N[C@@H](Cc2c[nH]c3ccccc23)C(=O)N[C@@H](C(C)C)C(=O)N[C@@H](Cc2ccc(-c3ccccc3)cc2)C(=O)N[C@@H]([C@@H](C)CC)C(=O)N[C@@H](CCCN)C(=O)N[C@H](CC(C)C)C(=O)N[C@@H](CCN)C(=O)N[C@@H](CC(C)C)C(=O)N[C@@H](C(C)C)C(=O)N[C@@H]([C@@H](C)O)C(=O)N1)C(=O)N[C@@H](CCN)C(=O)NCCCCCCCCCCC(=O)O [Compound 1200] ({CH2CO}-[4Pal]Y(Carboxymethyl)DWV[Bip]I[Orn][dL][Dab]LVTC[Orn][AEEA][Pra][Dab][Aun]-OH; thioether N-14)

The remaining lines, values behind:

SMILES	IC50 [nM]
CC(C)C[C@H]1NC(=O)[C@H](CCN)NC(=O)[C@H](C(C)C)NC(=O)[C@H](Cc2ccc(-c3ccccc3)cc2)NC(=O)[C@H](C(C)C)NC(=O)[C@H](Cc2c[nH]c3ccccc23)NC(=O)[C@H](CC(=O)O)NC(=O)[C@H](Cc2ccc(OCC(=O)O)cc2)NC(=O)[C@H](Cc2ccsc2)NC(=O)CSC[C@@H](C(=O)NCCOCCOCC(=O)N[C@@H](CCN)C(=O)NCCCCCCCCCCC(=O)O)NC(=O)[C@H](CCCN)NC(=O)[C@H](C(C)C)NC(=O)[C@H](CC2CCCCC2)NC(=O)[C@H](CCN)NC1=O [Compound 3284] ({CH2CO}-[3Thi]Y(Carboxymethyl)DWV[Bip]V[Dab][dL][Dab][Cha]V[Orn]C[AEEA][Dab][Aun]-OH; thioether N-14)	10.2
CCC(C)[C@@H]1NC(=O)[C@H](Cc2ccc(-c3ccccc3)cc2)NC(=O)[C@H](C(C)C)NC(=O)[C@H](Cc2cccc(C)c2)NC(=O)[C@H](CC(=O)O)NC(=O)[C@H](Cc2ccc(OCC(=O)O)cc2)NC(=O)[C@H](C(C)O)NC(=O)CSC[C@@H](C(=O)N[C@H](CCN)C(=O)NCCCCCCCCCCC(=O)O)NC(=O)[C@H](C(C)O)NC(=O)[C@H](C(C)C)NC(=O)[C@H](CC2CCCCC2)NC(=O)[C@H](CCN)NC(=O)[C@@H](CC(C)C)NC(=O)[C@H](CCCN)NC1=O (stereo partly shown) [Compound 3091]	26.9
Cc1cccc(C[C@@H]2NC(=O)[C@H](CC(=O)O)NC(=O)[C@H](Cc3ccc(OCC(=O)O)cc3)NC(=O)[C@H](CN)NC(=O)CSC[C@@H](C(=O)N[C@@H](C)C(=O)N[C@@H](CC(=O)O)C(=O)NCCOCCOCC(=O)N[C@@H](CC(=O)NCCOCCOCC(=O)NCCCCCCCCCCC(=O)O)C(=O)O)NC(=O)[C@H]([C@@H](C)O)NC(=O)[C@H](C(C)C)NC(=O)[C@H](CC3CCCCC3)NC(=O)[C@H](CCN)NC(=O)[C@@H](CC(C)C)NC(=O)[C@H](CCCN)NC(=O)[C@H](CCCNC(N)=O)NC(=O)[C@H](Cc3ccc(-c4ccccc4)cc3)NC(=O)[C@H](C(C)C)NC2=O)c1 [Compound 1021] ({CH2CO}-[Dap]Y(Carboxymethyl)D[Phe(3-Me)]V[Bip][Cit][Orn][dL][Dab][Cha]VTCAD[AEEA][βAsp][AEEA][Aun]-OH; thioether N-14)	8.3
CC(C)C[C@H]1NC(=O)[C@H](CCCN)NC(=O)[C@H](C(C)C)NC(=O)[C@H](Cc2ccc(-c3ccccc3)cc2)NC(=O)[C@H](C(C)C)NC(=O)[C@H](Cc2c[nH]c3ccccc23)NC(=O)[C@H](CC(=O)O)NC(=O)[C@H](Cc2ccc(OCC(=O)O)cc2)NC(=O)[C@H](CCCCNC(=N)N)NC(=O)CSC[C@@H](C(=O)N[C@@H](CCCNC(N)=O)C(=O)NCCOCCOCC(=O)NCCCCCCCCCCC(=O)O)NC(=O)[C@H](CCCN)NC(=O)[C@H](C(C)C)NC(=O)[C@H](CC2CCCCC2)NC(=O)[C@H](CC(N)=O)NC1=O [Compound 3218] ({CH2CO}-[hArg]Y(Carboxymethyl)DWV[Bip]V[Orn][dL]N[Cha]V[Orn]C[Cit][AEEA][Aun]-OH; thioether N-14)	26.9
CC[C@H](C)[C@@H]1NC(=O)[C@H](Cc2ccc(-c3ccccc3)cc2)NC(=O)[C@H](C(C)C)NC(=O)[C@H](Cc2cccc(C)c2)NC(=O)[C@H](CC(=O)O)NC(=O)[C@H](Cc2ccc(OCC(=O)O)cc2)NC(=O)[C@H](CN)NC(=O)CSC[C@@H](C(=O)N[C@@H](CCCCN)C(=O)NCCCCCCCCCCC(=O)O)NC(=O)[C@H](CCCN)NC(=O)[C@H](C(C)C)NC(=O)[C@H](CC2CCCCC2)NC(=O)[C@H](CCN)NC(=O)[C@@H](CC(C)C)NC(=O)[C@H](CCCN)NC1=O [Compound 2640] ({CH2CO}-[Dap]Y(Carboxymethyl)D[Phe(3-Me)]V[Bip]I[Orn][dL][Dab][Cha]V[Orn]CK[Aun]-OH; thioether N-14)	8.1
CC(C)C[C@H]1NC(=O)[C@H](CCCN)NC(=O)[C@H](C(C)C)NC(=O)[C@H](Cc2ccc(-c3ccccc3)cc2)NC(=O)[C@H](C(C)C)NC(=O)[C@H](Cc2c[nH]c3ccccc23)NC(=O)[C@H](CC(=O)O)NC(=O)[C@H](Cc2ccc(OCC(=O)O)cc2)NC(=O)[C@H](CCCNC(=N)N)NC(=O)CSC[C@@H](C(=O)N[C@@H](CCCN)C(=O)NCCCCCCCCCCC(=O)O)NC(=O)[C@H](CCCN)NC(=O)[C@H](C(C)C)NC(=O)[C@H](CC2CCCCC2)NC(=O)[C@H](CCN)NC1=O [Compound 3346] ({CH2CO}-RY(Carboxymethyl)DWV[Bip]V[Orn][dL][Dab][Cha]V[Orn]C[Orn][Aun]-OH; thioether N-14)	10.9
CC(C)C[C@@H]1NC(=O)[C@H](Cc2c[nH]c3ccccc23)NC(=O)[C@H](CC(=O)O)NC(=O)[C@H](Cc2ccc(OCC(=O)O)cc2)NC(=O)[C@H](CCCCNC(=N)N)NC(=O)CSC[C@@H](C(=O)NCCOCCOCC(=O)N[C@@H](CCN)C(=O)NCCCCCCCCCCC(=O)O)NC(=O)[C@H](CCCCN)NC(=O)[C@H](C(C)C)NC(=O)[C@H](CC2CCCCC2)NC(=O)[C@H](CCN)NC(=O)[C@@H](C)NC(=O)[C@H](CCN)NC(=O)[C@H](C(C)C)NC(=O)[C@H](Cc2ccc(-c3ccccc3)cc2)NC1=O [Compound 3258] ({CH2CO}-[hArg]Y(Carboxymethyl)DWL[Bip]V[Dab][dA][Dab][Cha]VKC[AEEA][Dab][Aun]-OH; thioether N-14)	37.3
